Reference: patent publication US20190062272A1, “SMALL MOLECULES FOR IMMUNOGENIC TREATMENT OF CANCER” (Capten Therapeutics Inc., priority 2017, published 2019)

Assays:
Type in all cases: cell-based
CT26 Colon Cancer = assay: Cytotoxicity assay (Cell Titer GLO, 72 hours), CT26; details: Mus musculus, CT26 Colon Cancer cells, cell viability by Cell Titer GLO, read-out: GC50 (the source's name)
Description: (§1) Cell lines used: CT26, B16F10 and NIH3T3
(§2) Concentration range of drug to be tested: 50 nM to 50 uM
(§3) Cells were plated in a 96 well plate and when they are about 50% confluent the drug was added in DMSO so that the final concentration of DMSO is 0.1% (v/v) of less and incubated for 72 hours. The cell viability is then determined using Cell Titer GLO.

B16F10 Melanoma = assay: Cytotoxicity assay (Cell Titer GLO, 72 hours), B16F10; details: Mus musculus, B16-F10, B16F10 Melanoma cells, cell viability by Cell Titer GLO, read-out: GC50 (the source's name)
Description: as §1, §2, §3

NIH 3T3 Non-tumor = assay: Cytotoxicity assay (Cell Titer GLO, 72 hours), NIH3T3; details: Mus musculus, NIH 3T3 Non-tumor cells, cell viability by Cell Titer GLO, read-out: GC50 (the source's name)
Description: as §1, §2, §3

SMILES: C=CC(=O)NCCSc1ccc(O)c(O)c1 [Compound 10, N-[2-(3,4-dihydroxyphenyl)sulfanylethyl]propenamide]
- IC50 (CT26 Colon Cancer): > 50 µM
- IC50 (B16F10 Melanoma): > 50 µM
- IC50 (NIH 3T3 Non-tumor): > 50 µM

SMILES: C=CC(=O)NCCSc1cc(O)ccc1O [Compound 12, N-[2-(2,5-dihydroxyphenyl)sulfanylethyl]propenamide]
- IC50 (CT26 Colon Cancer): 14.2 µM
- IC50 (B16F10 Melanoma): > 50 µM
- IC50 (NIH 3T3 Non-tumor): 3.3 µM

SMILES: C=CC(=O)NCCSc1cccc(O)c1O [Compound 14, N-[2-(2,3-dihydroxyphenyl)sulfanylethyl]propenamide]
- IC50 (CT26 Colon Cancer): 9.9 µM
- IC50 (B16F10 Melanoma): 4.7 µM
- IC50 (NIH 3T3 Non-tumor): > 50 µM
